Values joined by “and” are separate entries in the source; they are usually repeats but may differ in a detail not shown here. Identical values can stand only once.
Conditions: Fluid (supercritical or subcritical phases); for mass density: Buoyancy - hydrostatic balance with magnetic suspension - one sinker; for viscosity: Vibrating wire viscometry

CCCC [butane]
Conditions | mass density | viscosity
298.11 K, 162.81 kPa | 4.0157 kg/m3 | 0.007353 mPa·s
298.11 K, 162.82 kPa | 4.016 kg/m3 | 0.007354 mPa·s
298.12 K, 142.16 kPa | 3.4823 kg/m3 | 0.007359 mPa·s
298.12 K, 221.35 kPa | 5.5716 kg/m3 | 0.007333 mPa·s
298.12 K, 221.39 kPa | 5.5728 kg/m3 | 0.007334 mPa·s
298.13 K, 123.43 kPa | 3.0049 kg/m3 | 0.007365 mPa·s
298.13 K, 123.44 kPa | 3.0052 kg/m3 | 0.007363 mPa·s
298.13 K, 142.17 kPa | 3.4826 kg/m3 | 0.007359 mPa·s
298.14 K, 61.79 kPa | 1.4756 kg/m3 | 0.007376 mPa·s
298.14 K, 61.8 kPa | 1.4758 kg/m3 | 0.007378 mPa·s
298.14 K, 82.37 kPa | 1.9794 kg/m3 | 0.007375 mPa·s
298.14 K, 82.38 kPa | 1.9797 kg/m3 | 0.007372 mPa·s
298.14 K, 102.9 kPa | 2.4887 kg/m3 | 0.007369 mPa·s
298.14 K, 102.91 kPa | 2.4889 kg/m3 | 0.00737 mPa·s
298.14 K, 175.29 kPa | 4.3414 kg/m3 and 4.3415 kg/m3 | 0.007347 mPa·s and 0.007346 mPa·s
298.14 K, 196.75 kPa | 4.9091 kg/m3 | 0.007342 mPa·s
298.14 K, 196.77 kPa | 4.9096 kg/m3 | 0.007341 mPa·s
298.15 K, 57.18 kPa | 1.3635 kg/m3 and 1.3636 kg/m3 | 0.007377 mPa·s and 0.007378 mPa·s
322.98 K, 450.39 kPa | 11.024 kg/m3 | 0.007953 mPa·s
323 K, 450.69 kPa | 11.032 kg/m3 | 0.007951 mPa·s
323.01 K, 450.89 kPa | 11.037 kg/m3 | 0.007953 mPa·s
323.06 K, 392.1 kPa | 9.426 kg/m3 | 0.007958 mPa·s
323.08 K, 392.5 kPa | 9.4391 kg/m3 | 0.007954 mPa·s
323.09 K, 392.9 kPa | 9.4492 kg/m3 | 0.00796 mPa·s
323.11 K, 380.74 kPa | 9.1236 kg/m3 | 0.007958 mPa·s
323.11 K, 380.78 kPa | 9.1236 kg/m3 | 0.007958 mPa·s
323.12 K, 330.12 kPa | 7.8092 kg/m3 | 0.007967 mPa·s
323.12 K, 330.36 kPa | 7.8164 kg/m3 | 0.007967 mPa·s
323.12 K, 380.76 kPa | 9.1272 kg/m3 | 0.007958 mPa·s
323.13 K, 261.18 kPa | 6.0223 kg/m3 | 0.00797 mPa·s
323.13 K, 261.21 kPa | 6.023 kg/m3 | 0.007973 mPa·s
323.13 K, 301.54 kPa | 7.0807 kg/m3 | 0.00797 mPa·s
323.13 K, 303.39 kPa | 7.1241 kg/m3 | 0.007967 mPa·s
323.13 K, 305.32 kPa | 7.1762 kg/m3 | 0.00797 mPa·s
323.13 K, 330.63 kPa | 7.8215 kg/m3 | 0.007965 mPa·s
323.14 K, 58.2 kPa | 1.2744 kg/m3 and 1.2766 kg/m3 | 0.007994 mPa·s and 0.007988 mPa·s
323.14 K, 58.21 kPa | 1.2766 kg/m3 | 0.00799 mPa·s
323.14 K, 66.38 kPa | 1.4575 kg/m3 and 1.4567 kg/m3 | 0.007991 mPa·s and 0.007994 mPa·s
323.14 K, 66.39 kPa | 1.4553 kg/m3 | 0.007994 mPa·s
323.14 K, 90.51 kPa | 1.9979 kg/m3 | 0.007987 mPa·s
323.14 K, 90.52 kPa | 1.9986 kg/m3 | 0.00799 mPa·s
323.14 K, 112.93 kPa | 2.5057 kg/m3 | 0.00799 mPa·s
323.14 K, 112.94 kPa | 2.5035 kg/m3 | 0.007991 mPa·s
323.14 K, 112.96 kPa | 2.5057 kg/m3 | 0.00799 mPa·s
323.14 K, 132.43 kPa | 2.9506 kg/m3 | 0.007991 mPa·s
323.14 K, 132.44 kPa | 2.9492 kg/m3 | 0.007989 mPa·s
323.14 K, 132.46 kPa | 2.9499 kg/m3 | 0.007989 mPa·s
323.14 K, 184.24 kPa | 4.1645 kg/m3 | 0.007979 mPa·s
323.14 K, 215.63 kPa | 4.9096 kg/m3 | 0.007976 mPa·s
323.14 K, 215.65 kPa | 4.9111 kg/m3 | 0.007976 mPa·s
323.14 K, 215.87 kPa | 4.9169 kg/m3 | 0.007974 mPa·s
323.14 K, 261.28 kPa | 6.0252 kg/m3 | 0.007968 mPa·s
323.15 K, 150.03 kPa | 3.3622 kg/m3 | 0.007982 mPa·s
323.15 K, 150.04 kPa | 3.3622 kg/m3 | 0.007982 mPa·s
323.15 K, 184.35 kPa | 4.1652 kg/m3 | 0.00798 mPa·s
323.15 K, 184.36 kPa | 4.1667 kg/m3 | 0.007979 mPa·s
348.03 K, 813.85 kPa | 19.576 kg/m3 | 0.008652 mPa·s
348.03 K, 813.99 kPa | 19.581 kg/m3 | 0.008648 mPa·s
348.03 K, 814.13 kPa | 19.586 kg/m3 | 0.008649 mPa·s
348.12 K, 677.52 kPa | 15.682 kg/m3 | 0.008631 mPa·s
348.12 K, 677.82 kPa | 15.691 kg/m3 | 0.008631 mPa·s
348.13 K, 760.25 kPa | 17.999 kg/m3 | 0.00864 mPa·s
348.13 K, 760.34 kPa | 18.002 kg/m3 | 0.008637 mPa·s
348.14 K, 93.82 kPa | 1.9124 kg/m3 | 0.008599 mPa·s
348.14 K, 93.83 kPa | 1.9131 kg/m3 | 0.008597 mPa·s
348.14 K, 293.19 kPa | 6.2173 kg/m3 | 0.008602 mPa·s
348.14 K, 293.73 kPa | 6.2296 kg/m3 | 0.008602 mPa·s
348.14 K, 618.24 kPa | 14.097 kg/m3 | 0.008621 mPa·s
348.14 K, 618.34 kPa | 14.099 kg/m3 | 0.008628 mPa·s
348.15 K, 63.28 kPa | 1.2845 kg/m3 | 0.008588 mPa·s
348.15 K, 63.3 kPa | 1.286 kg/m3 | –
